Experimental findings from patent US11142515B2, “Pyrazolyl-ureas as kinase inhibitors” (RESPIVERT LIMITED, priority 2014, dated 2021) are described below.

Assay [1] addresses T1, p38 MAPKα isoform (MAPK14) (Homo sapiens, UniProt Q16539).
T1 construct: purchased Life Technologies
In words: p38 MAPKα enzyme inhibition (Z-LYTE FRET). Format: biochemical. As to conditions: Table 2B, unit inferred; read-out: p38 MAPKα (Enzyme Profile). The method, then:
The enzyme inhibitory activities of compounds disclosed herein were determined by FRET using synthetic peptides labelled with both donor and acceptor fluorophores (Z-LYTE, Life Technologies, Paisley, UK).
The inhibitory activities of compounds of the invention against the p38 MAPKα isoform (MAPK14: Life Technologies), were evaluated indirectly by determining the level of activation/phosphorylation of the target peptide of the p38 MAPKα down-stream molecule, MAPKAP-K2. The enzyme (40 ng/mL, 2.5 μL) was incubated with the test compound (2.5 μL of either 40 μg/mL, 12 μg/mL, 4 μg/mL, 1.2 μg/mL, 0.4 μg/mL, 0.12 μg/mL, 0.04 μg/mL, 0.012 μg/mL, 0.004 μg/mL or 0.0012 μg/mL) for 2 h at RT. […] Development reagent (protease, 5 μL) was added for 1 h prior to detection in a fluorescence microplate reader (EnVision, Perkin Elmer, Waltham, Mass., USA).
In all cases, the site-specific protease cleaves non-phosphorylated peptide only and eliminates the FRET signal. Phosphorylation levels of each reaction were calculated using the ratio of coumarin emission (donor) over fluorescein emission (acceptor), for which low ratios indicate high phosphorylation and high ratios indicate low phosphorylation levels.

The target of assay [2] is T2, p38MAPKγ (MAPK12) (Homo sapiens, UniProt P53778).
T2 construct: purchased Life Technologies
T2 sequence (P53778 1-367): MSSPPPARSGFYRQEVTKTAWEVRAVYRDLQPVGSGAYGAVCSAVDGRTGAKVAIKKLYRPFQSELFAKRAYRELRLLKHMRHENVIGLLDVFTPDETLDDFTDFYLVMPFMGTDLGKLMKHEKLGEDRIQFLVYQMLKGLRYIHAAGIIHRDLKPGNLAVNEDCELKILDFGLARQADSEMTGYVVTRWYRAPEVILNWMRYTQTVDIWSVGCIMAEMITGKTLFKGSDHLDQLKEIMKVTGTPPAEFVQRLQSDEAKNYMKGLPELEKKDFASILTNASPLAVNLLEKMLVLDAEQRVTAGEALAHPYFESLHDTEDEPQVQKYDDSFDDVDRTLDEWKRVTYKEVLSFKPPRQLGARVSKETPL
In words: p38 MAPKγ enzyme inhibition (Z-LYTE FRET). The class given is biochemical. The following applies: Table 2B, unit inferred; read-out: p38 MAPKγ (Enzyme Profile). Put shortly: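 Enzyme (added at 800 ng/mL) was preincubated 2 h at RT with compound (solutions of 40 to 0.0012 μg/mL), then FRET peptide (8 μM) and ATP (400 μM), both as added, were reacted 1 h at RT. Protease development followed for 1 h; phosphorylation was read as the coumarin/fluorescein emission ratio.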

T1 sequence (Q16539 whole entry, canonical isoform): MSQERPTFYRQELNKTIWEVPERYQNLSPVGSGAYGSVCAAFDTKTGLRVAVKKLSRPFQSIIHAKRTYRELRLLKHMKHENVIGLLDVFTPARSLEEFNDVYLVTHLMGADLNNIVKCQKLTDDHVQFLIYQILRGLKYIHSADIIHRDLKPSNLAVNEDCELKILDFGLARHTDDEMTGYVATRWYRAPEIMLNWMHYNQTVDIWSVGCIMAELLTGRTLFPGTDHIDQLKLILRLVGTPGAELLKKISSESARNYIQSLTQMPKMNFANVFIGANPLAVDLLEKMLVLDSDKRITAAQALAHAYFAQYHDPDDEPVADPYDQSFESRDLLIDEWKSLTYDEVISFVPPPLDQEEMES

With `Cc1ccc(-n2nc(C(C)(C)C)cc2NC(=O)Nc2ccc(OCc3ccnc(Nc4cncc(NC(C)C)n4)c3)c3ccccc23)cc1` [Example 117, 1-(3-(tert-butyl)-1-(p-tolyl)-1H-pyrazol-5-yl)-3-(4-((2-((6-(isopropylamino)pyrazin-2-yl)amino)pyridin-4-yl)methoxy)naphthalen-1-yl) urea], the IC50 in assay [1] is 0.016 µM; in assay [2], 0.15 µM.
Regarding `COCCNC(=O)c1cnc(Nc2cc(COc3ccc(NC(=O)Nc4cc(C(C)(C)C)nn4-c4ccc(C)c(C)c4)c4ccccc34)ccn2)cn1` [Example 156], the IC50 in assay [1] worked out at 0.021 µM; in assay [2], 0.495 µM.
For `Cc1cc(C)cc(-n2nc(C(C)(C)C)cc2NC(=O)Nc2ccc(OCc3ccnc(Nc4cnc(C(=O)N5CCCC5)cn4)c3)c3ccccc23)c1` [Example 218, 1-(3-(tert-butyl)-1-(3,5-dimethylphenyl)-1H-pyrazol-5-yl)-3-(4-((2-((5-(pyrrolidine-1-carbonyl)pyrazin-2-yl)amino)pyridin-4-yl)methoxy)naphthalen-1-yl)urea], the IC50 in assay [1] is 0.028 µM; in assay [2], above 14.1 µM.
On to `Cc1ccc(-n2nc(C(C)(C)C)cc2NC(=O)Nc2ccc(OCc3ccnc(Nc4cncc(OCCO)n4)c3)c3ccccc23)cc1` [Example 121, 1-(3-(tert-butyl)-1-(p-tolyl)-1H-pyrazol-5-yl)-3-(4-((2-((6-(2-hydroxyethoxy)pyrazin-2-yl)amino)pyridin-4-yl)methoxy)naphthalen-1-yl)urea], for which the IC50 in assay [1] is 0.038 µM; in assay [2], 0.079 µM.
Regarding `CCNC(=O)c1cnc(Nc2cc(COc3ccc(NC(=O)Nc4cc(C(C)(C)C)nn4-c4ccc(C)cc4)c4ccccc34)ccn2)cn1` [Example 191, 5-((4-(((4-(3-(3-(tert-butyl)-1-(p-tolyl)-1H-pyrazol-5-yl)ureido)naphthalen-1-yl)oxy)methyl)pyridin-2-yl)amino)-N-ethylpyrazine-2-carboxamide], the IC50 was found to be 0.047 µM in assay [1] and 0.46 µM in assay [2].
For `COCCNC(=O)c1cnc(Nc2cc(COc3ccc(NC(=O)Nc4cc(C(C)(C)C)nn4-c4ccc(OC)c(C)c4)c4ccccc34)ccn2)cn1` [Example 132, 5-((4-(((4-(3-(3-(tert-butyl)-1-(4-methoxy-3-methyl-phenyl)-1H-pyrazol-5-yl)ureido)naphthalen-1-yl)oxy)methyl)pyridin-2-yl)amino)-N-(2-methoxyethyl)pyrazine-2-carboxamide], the IC50 was 0.011 µM in assay [1] and above 13.7 µM in assay [2].
On the same counts, the results for `Cc1ccc(-n2nc(C(C)(C)C)cc2NC(=O)Nc2ccc(OCc3ccnc(Nc4cnc(C(=O)N5CCC(C)CC5)cn4)c3)c3ccccc23)cc1` [Example 185, 1-(3-(tert-butyl)-1-(p-tolyl)-1H-pyrazol-5-yl)-3-(4-((2-((5-(4-methylpiperidine-1-carbonyl)pyrazin-2-yl)amino)pyridin-4-yl)methoxy)naphthalen-1-yl) urea] are 0.11 µM and 2.51 µM.
As to `COCCN(CCOC)C(=O)c1cnc(Nc2cc(COc3ccc(NC(=O)Nc4cc(C(C)(C)C)nn4-c4cccc(C)c4)c4ccccc34)ccn2)cn1` [Example 76], the figures for the IC50 in assay [1] and in assay [2] were 0.015 µM and 0.148 µM, respectively.
For `COCc1cnc(Nc2cc(COc3ccc(NC(=O)Nc4cc(C(C)(C)C)nn4-c4ccc(C)cc4)c4ccccc34)ccn2)cn1` [Example 190, 1-(3-(tert-butyl)-1-(p-tolyl)-1H-pyrazol-5-yl)-3-(4-((2-((5-(methoxymethyl)pyrazin-2-yl)amino)pyridin-4-yl)methoxy)naphthalen-1-yl) urea], the IC50 in assay [1] worked out at 0.023 µM; in assay [2] it was 0.232 µM.
As for `Cc1ccc(-n2nc(C(C)(C)C)cc2NC(=O)Nc2ccc(OCc3ccnc(Nc4cnc(C(=O)N5CCC(O)CC5)cn4)c3)c3ccccc23)cc1` [Example 127, 1-(3-(tert-butyl)-1-(p-tolyl)-1H-pyrazol-5-yl)-3-(4-((2-((5-(4-hydroxypiperidine-1-carbonyl)pyrazin-2-yl)amino)pyridin-4-yl)methoxy)naphthalen-1-yl) urea], the IC50 is 0.0068 µM in assay [1] and 0.093 µM in assay [2].
Taken in the same sequence, the figures for `COCCCNC(=O)c1cnc(Nc2cc(COc3ccc(NC(=O)Nc4cc(C(C)(C)C)nn4-c4ccc(C)cc4)c4ccccc34)ccn2)cn1` [Example 186, 5-((4-(((4-(3-(3-(tert-butyl)-1-(p-tolyl)-1H-pyrazol-5-yl)ureido)naphthalen-1-yl)oxy)methyl)pyridin-2-yl)amino)-N-(3-methoxypropyl) pyrazine-2-carboxamide] were 0.025 µM and above 14 µM.
On the same counts, the results for `Cc1cc(-n2nc(C(C)(C)C)cc2NC(=O)Nc2ccc(OCc3ccnc(Nc4cncc(N(C)C)n4)c3)c3ccccc23)cs1` [Example 112, 1-(3-(tert-butyl)-1-(5-methylthiophen-3-yl)-1H-pyrazol-5-yl)-3-(4-((2-((6-(dimethylamino)pyrazin-2-yl)amino)pyridin-4-yl)methoxy)naphthalen-1-yl) urea] are 0.043 µM and 0.277 µM.
In the case of `CCc1cncc(Nc2cc(COc3ccc(NC(=O)Nc4cc(C(C)(C)C)nn4-c4cccc(F)c4)c4ccccc34)ccn2)n1` [Example 62], the IC50 came out at 0.024 µM in assay [1] and 0.56 µM in assay [2].
Taken in the same sequence, the figures for `Cc1ccc(-n2nc(C(C)(C)C)cc2NC(=O)Nc2ccc(OCc3ccnc(Nc4cnc(C(=O)NC5CCN(C)CC5)cn4)c3)c3ccccc23)cc1` [Example 80] were below 0.00041 µM and 0.054 µM.
Take `CN(C)c1cncc(Nc2cc(COc3ccc(NC(=O)Nc4cc(C(C)(C)C)nn4-c4ccc(CO)cc4)c4ccccc34)ccn2)n1` [Example 114, 1-(3-(tert-butyl)-1-(4-(hydroxymethyl)phenyl)-1H-pyrazol-5-yl)-3-(4-((2-((6-(dimethylamino)pyrazin-2-yl)amino)pyridin-4-yl)methoxy)naphthaien-1-yl)urea]: the IC50 in assay [1] came to 0.002 µM; in assay [2], 0.026 µM.
As to `Cc1cc(F)cc(-n2nc(C(C)(C)C)cc2NC(=O)Nc2ccc(OCc3ccnc(Nc4cnccn4)c3)c3ccccc23)c1` [Example 181, 1-(3-(tert-butyl)-1-(3-fluoro-5-methylphenyl)-1H-pyrazol-5-yl)-3-(4-((2-(pyrazin-2-ylamino)pyridin-4-yl)methoxy)naphthalen-1-yl)urea], the values for the IC50 in assay [1] and in assay [2] were 0.015 µM and 0.064 µM, respectively.
For the compound `Cc1ccc(-n2nc(C(C)(C)C)cc2NC(=O)Nc2ccc(OCc3ccnc(Nc4cnc(CN5CCOCC5)cn4)c3)c3ccccc23)cc1` [Example 263, 1-(3-(tert-butyl)-1-(p-tolyl)-1H-pyrazol-5-yl)-3-(4-((2-((5-(morpholinomethyl)pyrazin-2-yl)amino)pyridin-4-yl)methoxy)naphthalen-1-yl)urea], the IC50 in assay [1] came to 0.021 µM; in assay [2], 0.218 µM.
`Cc1ccc(-n2nc(C(C)(C)C)cc2NC(=O)Nc2ccc(OCc3ccnc(Nc4cnc(C(=O)N5CCCC5)cn4)c3)c3ccccc23)cc1F` [Example 235, 1-(3-(tert-butyl)-1-(3-fluoro-4-methylphenyl)-1H-pyrazol-5-yl)-3-(4-((2-((5-(pyrrolidine-1-carbonyl)pyrazin-2-yl)amino)pyridin-4-yl)methoxy)naphthalen-1-yl)urea]: the IC50 is 0.065 µM in assay [1] and above 14 µM in assay [2].
Regarding `CCc1cncc(Nc2cc(COc3ccc(NC(=O)Nc4cc(C(C)(C)C)nn4-c4ccc(F)cc4)c4ccccc34)ccn2)n1` [Example 213, 1-(3-(tert-butyl)-1-(4-fluoro-phenyl)-1H-pyrazol-5-yl)-3-(4-((2-((6-ethylpyrazin-2-yl)amino)pyridin-4-yl)methoxy)naphthalen-1-yl)urea], the IC50 was 0.036 µM in assay [1] and 0.735 µM in assay [2].
Regarding `COc1ccc(-n2nc(C(C)(C)C)cc2NC(=O)Nc2ccc(OCc3ccnc(Nc4cnc(C)c(C)n4)c3)c3ccccc23)cn1` [Example 207, 1-(3-(tert-butyl)-1-(6-methoxypyridin-3-yl)-1H-pyrazol-5-yl)-3-(4-((2-((5,6-dimethylpyrazin-2-yl)amino)pyridin-4-yl)methoxy)naphthalen-1-yl)urea], the IC50 in assay [1] stood at 0.03 µM; in assay [2], 2.39 µM.
